“And” between values parts separate entries of the source, which are not always exact repeats. Equal entries are not always repeated. Where two headings read alike, the source gives them in different places.
Experiments:
HEK-293T-ACE2^h cells = assay: MTT cytotoxicity assay on host cells (4 h); assay type: cell-based, human; conditions: MTT, 4 h
Beas-2B cells = assay: MTT cytotoxicity on human normal cell line Beas-2B (24 h); assay type: cell-based; conditions: Homo sapiens, BEAS-2B, 24 h, read-out: IC50 Values of Human Normal Cell Lines, Beas-2B
LO2 cells = assay: MTT cytotoxicity on human normal cell line LO2 (24 h); assay type: cell-based; conditions: Homo sapiens, L02, 24 h, read-out: IC50 Values of Human Normal Cell Lines, LO2
HEK 293 cells = assay: MTT cytotoxicity on human normal cell line HEK 293 (24 h); assay type: cell-based; conditions: Homo sapiens, HEK293, 24 h, read-out: IC50 Values of Human Normal Cell Lines, HEK 293
SARS-CoV-2 pseudovirus [1] = conditions: for IC50: read-out: IC50 (inhibition of pseudovirus entry into host cells)
SARS-CoV-2 pseudovirus [2] = assay: microbe, parasite or virus in culture; conditions: Severe acute respiratory syndrome-related coronavirus, read-out: IC50 (inhibition of pseudovirus entry into host cells)

SMILES | CC0 (maximum nontoxic concentration) (HEK-293T-ACE2^h cells) [µM] | TC50 (concentration reducing cell viability by 50%) (HEK-293T-ACE2^h cells) | IC50 (Beas-2B cells) [µM] | IC50 (LO2 cells) [µM] | IC50 (HEK 293 cells) [µM] | SI (ratio of TC50 to IC50) (SARS-CoV-2 pseudovirus [1]) | IC50 (SARS-CoV-2 pseudovirus [2]) [µM] | IC50 (SARS-CoV-2 pseudovirus [1]) [µM]
Oc1cc(O)c2c(c1)O[C@H](c1cc(O)c(O)c(O)c1)[C@H](O)C2 [compound 23, (-)-Epigallocatechin] | 200 | 453.10 ± 4.55 µM | 369 ± 1.7 | 483.3 ± 1.52 | > 500 | 6.11 | 74.2 ± 10.7 | 
COc1c(O)cc2oc(-c3ccccc3)cc(=O)c2c1O [compound 8, Oroxylin A] | 100 | >300 µM | > 300 | > 300 | > 300 | >8.08 | < 50 | 37.1 ± 2.58
O=C(O[C@@H]1Cc2c(O)cc(O)cc2O[C@@H]1c1cc(O)c(O)c(O)c1)c1cc(O)c(O)c(O)c1 [compound 25, (-)-Epigallocatechin gallate] | 300 | >500 µM | > 500 | 430 ± 6.98 | > 500 |  | < 50 | 31.3 ± 7.4
O=c1cc(-c2ccc(O)cc2)oc2c([C@@H]3O[C@H](CO)[C@@H](O)[C@H](O)[C@H]3O)c(O)cc(O)c12 [compound 4, Vitexin] | 300 | >500 µM |  |  |  |  | > 300 | 
O=c1cc(-c2ccc(O)c(O)c2)oc2c([C@@H]3O[C@H](CO)[C@@H](O)[C@H](O)[C@H]3O)c(O)cc(O)c12 [compound 5, Orientin] | 300 | >500 µM | > 500 | > 500 | > 500 | >7.85 | 63.7 ± 9.61 | 
Oc1cc(O)c2c(c1)O[C@H](c1ccc(O)c(O)c1)[C@H](O)[C@H]2c1c(O)cc(O)c2c1O[C@H](c1ccc(O)c(O)c1)[C@@H](O)C2 [compound 27, Procyanidin B-1] | 300 | >500 µM |  |  |  |  | > 300 | 
O=C(O)[C@H]1O[C@@H](Oc2cc3oc(-c4ccccc4)cc(=O)c3c(O)c2O)[C@H](O)[C@@H](O)[C@@H]1O [compound 12, Baicalin] | 300 | >500 µM | > 500 | > 500 | > 500 | >4.56 | 110 ± 11 | 
O=C(O[C@@H]1Cc2c(O)cc(O)cc2O[C@@H]1c1ccc(O)c(O)c1)c1cc(O)c(O)c(O)c1 [compound 24, (-)-Epicatechin gallate] | 300 | >500 µM | > 500 | > 500 | > 500 | >8.51 | 58.8 ± 3.25 | 
COc1ccc2cc1Oc1ccc(cc1)C[C@H]1c3c(cc4c(c3Oc3cc5c(cc3OC)CCN(C)[C@@H]5C2)OCO4)CCN1C [Cepharanthine, reference compound] | 6.25 | 11.54 µM and 11.54 ± 1.39 µM | 26.1 ± 1.08 | 16.06 ± 0.13 | 24.3 ± 0.22 | 8.88 | 1.3 ± 0.18 | 
Oc1cc(O)c2c(c1)O[C@H](c1ccc(O)c(O)c1)[C@H](O)[C@H]2c1c(O)cc(O)c2c1O[C@H](c1ccc(O)c(O)c1)[C@H](O)[C@H]2c1c(O)cc(O)c2c1O[C@H](c1ccc(O)c(O)c1)[C@H](O)C2 [compound 31, Procyanidin C-1] | 300 | >500 µM | > 500 | > 500 | > 500 | >2.90 | 173 ± 20.7 | 
O=c1cc(-c2ccccc2)oc2cc(O[C@@H]3O[C@H](CO)[C@@H](O)[C@H](O)[C@H]3O)c(O)c(O)c12 [compound 10, Oroxin A] | 300 | >300 µM | > 300 | > 300 | 258 ± 10.6 | >3.55 | 84.6 ± 10.8 | 
Oc1cc(O)c2c(c1)O[C@H](c1ccc(O)c(O)c1)[C@@H](O)[C@@H]2c1c(O)cc(O)c2c1O[C@H](c1ccc(O)c(O)c1)[C@H](O)C2 [compound 30, Procyanidin B-4] | 300 | >500 µM | > 500 | > 500 | > 500 | >3.30 | 151 ± 28.1 | 
COc1c(O[C@@H]2O[C@H](C(=O)O)[C@@H](O)[C@H](O)[C@H]2O)cc(O)c2c(=O)cc(-c3ccccc3)oc12 [compound 13, Wogonoside] | 300 | >500 µM | > 500 | > 500 | > 500 | >4.20 | 119 ± 21 | 
O=c1cc(-c2ccc(O)cc2)oc2cc(O)c(O)c(O)c12 [compound 9, Scutellarein] | 200 | >300 µM | > 300 | > 300 | > 300 | >10.25 | < 50 | 29.3 ± 0.74
O=c1c(O[C@@H]2O[C@H](CO)[C@@H](O)[C@H](O)[C@H]2O)c(-c2ccc(O)cc2)oc2cc(O)cc(O)c12 [compound 17, Astragalin] | 300 | >500 µM | > 500 | > 500 | > 500 | >3.76 | 133 ± 16.2 | 
O=c1cc(-c2ccc(O)c(O)c2)oc2cc(O)cc(O)c12 [compound 3, Luteolin] | 200 | >300 µM | > 300 | 183 ± 10.3 | > 300 |  |  | 
Oc1cc(O)c2c(c1)O[C@H](c1ccc(O)c(O)c1)[C@@H](O)[C@@H]2c1c(O)cc(O)c2c1O[C@H](c1ccc(O)c(O)c1)[C@@H](O)C2 [compound 29, Procyanidin B-3] | 300 | >500 µM |  |  |  |  | > 300 | 
O=c1cc(-c2ccc(O)cc2)oc2cc(O)cc(O)c12 [compound 2, Apigenin] | 50 | 90.88 ± 3.13 µM |  |  |  | <1.82 | > 50 | 
O=c1cc(-c2ccccc2)oc2cc(O)cc(O)c12 [compound 1, Chrysin] | 100 | 168.50 ± 12.06 µM |  |  |  | <1.69 | > 100 | 
Oc1cc(O)c2c(c1)O[C@H](c1ccc(O)c(O)c1)[C@H](O)[C@H]2c1c(O)cc(O)c2c1O[C@H](c1ccc(O)c(O)c1)[C@H](O)C2 [compound 28, Procyanidin B-2] | 300 | >500 µM |  |  |  |  | > 300 | 
CC1OC(OC2C(c3c(O)cc(O)c4c(=O)cc(-c5ccc(O)cc5)oc34)OC(CO)C(O)C2O)C(O)C(O)C1O (stereo not shown) [compound 6, Vitexin-2″-O-rhamnoside] | 300 | >500 µM |  |  |  |  | > 300 | 
